Several values for one entry are separate records, joined by “and”; a condition that tells them apart may be missing. Identical values can stand only once. Like-named read-outs stand apart in the source and are kept apart here.
What was measured:
[1] = Human liver microsomal stability; assay type: in vitro ADME; settings: human liver microsomes, after a 30 min incubation
Procedure: (§1) Compounds (10 μM) were incubated with mixed gender pooled human liver microsomes (1 mg·mL^−1) protein in the presence of NADPH (1 mM), UDPGA (2.5 mM) and MgCl2 (3 mM) in phosphate buffered saline (10 mM) at 37° C. Incubations were conducted for 0 and 30 minutes. Control incubations were generated by the omission of NADPH and UDPGA from the incubation reaction. The percentage compound remaining was determined after analysis by LCMS.

[2] = system: SW620 human colon carcinoma xenograft; settings: literature (ref 26); cited from earlier work
CYP2C9 = CYP2C9 (Homo sapiens (Human), UniProt P11712); assay: Inhibition of CYP isozymes in human liver microsomes, CYP2C9
CYP2C19 = CYP2C19 (Homo sapiens (Human), UniProt P33261); assay: Inhibition of CYP isozymes in human liver microsomes, CYP2C19
hERG [3] = target: T1, hERG (Homo sapiens (Human), UniProt Q12809)
CYP3A4 = CYP3A4 (Homo sapiens (Human), UniProt P08684); assay: Inhibition of CYP isozymes in human liver microsomes, CYP3A4; settings: read-out: Estimated IC50 CYP3A4, probe Midazolam
Aurora-A = Aurora-A (Homo sapiens (Human), UniProt O14965); settings: read-out: Aurora-A IC50; biochemical assay
Procedure: Aurora kinase assays: Aurora kinase IC50 values were determined as previously described.^26, 36

CYP1A2 = CYP1A2 (Homo sapiens (Human), UniProt P05177); assay: Inhibition of CYP isozymes in human liver microsomes, CYP1A2
CYP2D6 = CYP2D6 (Homo sapiens (Human), UniProt P10635); assay: Inhibition of CYP isozymes in human liver microsomes, CYP2D6
CYP2A6 = CYP2A6 (Homo sapiens (Human), UniProt P11509); assay: Inhibition of CYP isozymes in human liver microsomes, CYP2A6; settings: read-out: Estimated IC50 CYP2A6, probe Coumarin
[4] = system: MV4-11 human tumour xenografts; assay: Human tumour xenograft efficacy study (MV4-11); assay type: in vivo
Source text: Brit J Cancer 102: 1555-1577, 2010.

Aurora-B = Aurora-B (Homo sapiens (Human), UniProt Q96GD4); assay: KINOMEScan Aurora-B; assay type: binding; settings: read-out: % control Aurora-B
Procedure: (§2) Kinase selectivity profiling: Kinase profiling using the KINOMEScan™ technology and Kd determinations were performed by KINOMEscan, a Division of DiscoveRx Corporation, San Diego, Calif., USA; www.kinomescan.com.

FLT3(D835H) = FLT3(D835H) (Homo sapiens (Human), UniProt P36888, D835H); assay: KINOMEScan FLT3(D835H); assay type: binding; settings: 1 μM primary screening
Procedure: as §2

FLT3 = FLT3 (Homo sapiens (Human), UniProt P36888); assay: KINOMEScan FLT3; assay type: binding; settings: 1 μM primary screening
Procedure: as §2

FLT3-ITD = FLT3-ITD (Homo sapiens, UniProt P36888); assay: KINOMEScan FLT3-ITD; assay type: binding; settings: 1 μM primary screening
Procedure: as §2

FLT3(D835Y) = FLT3(D835Y) (Homo sapiens (Human), UniProt P36888, D835Y); assay: KINOMEScan FLT3(D835Y); assay type: binding; settings: 1 μM primary screening
Procedure: as §2

[5] = system: histone H-3 phosphorylation at S10; assay: 4-day PK/PD study: histone H-3 phosphorylation in MV4-11 xenografts; assay type: in vivo, mouse; settings: 50 and 100 mg/kg oral twice daily, 4 days
Procedure: (§3) Tumour samples were obtained 2 h after the final dose. Total histone H3, total Stat5 and GAPDH were used as loading controls.

[6] = system: phosphorylation of STAT5 at Y694; assay: 4-day PK/PD study: STAT5 phosphorylation in MV4-11 xenografts; assay type: in vivo, mouse; settings: 50 and 100 mg/kg oral twice daily, 4 days
Procedure: as §3

Log D measurement = assay type: physicochemical; settings: pH 7.4, experimentally determined value
Procedure: Physicochemical properties: Log D and pKa measurements were performed by Pharmorphix® Solid State Services, Member of the Sigma-Aldrich Group, Cambridge, UK.

[7] = system: HCT116 human colon carcinoma; assay: Cell viability assay, HCT116; assay type: cell-based; settings: HCT-116
[8] = system: 442-kinase panel (386 non-mutant kinases); assay: KINOMEScan kinase selectivity profiling, 442-kinase panel; assay type: binding; settings: 1 μM; >90% competition
Procedure: as §2

[9] = Mouse liver microsomal stability; assay type: in vitro ADME; settings: mouse liver microsomes, after a 30 min incubation
Procedure: as §1, with “male CD1 mouse” for “mixed gender pooled human”

hERG [10] = target: T1, hERG; assay: hERG inhibition (cell-based electrophysiology, hERG tail current)

T1 sequence (Q12809 whole entry): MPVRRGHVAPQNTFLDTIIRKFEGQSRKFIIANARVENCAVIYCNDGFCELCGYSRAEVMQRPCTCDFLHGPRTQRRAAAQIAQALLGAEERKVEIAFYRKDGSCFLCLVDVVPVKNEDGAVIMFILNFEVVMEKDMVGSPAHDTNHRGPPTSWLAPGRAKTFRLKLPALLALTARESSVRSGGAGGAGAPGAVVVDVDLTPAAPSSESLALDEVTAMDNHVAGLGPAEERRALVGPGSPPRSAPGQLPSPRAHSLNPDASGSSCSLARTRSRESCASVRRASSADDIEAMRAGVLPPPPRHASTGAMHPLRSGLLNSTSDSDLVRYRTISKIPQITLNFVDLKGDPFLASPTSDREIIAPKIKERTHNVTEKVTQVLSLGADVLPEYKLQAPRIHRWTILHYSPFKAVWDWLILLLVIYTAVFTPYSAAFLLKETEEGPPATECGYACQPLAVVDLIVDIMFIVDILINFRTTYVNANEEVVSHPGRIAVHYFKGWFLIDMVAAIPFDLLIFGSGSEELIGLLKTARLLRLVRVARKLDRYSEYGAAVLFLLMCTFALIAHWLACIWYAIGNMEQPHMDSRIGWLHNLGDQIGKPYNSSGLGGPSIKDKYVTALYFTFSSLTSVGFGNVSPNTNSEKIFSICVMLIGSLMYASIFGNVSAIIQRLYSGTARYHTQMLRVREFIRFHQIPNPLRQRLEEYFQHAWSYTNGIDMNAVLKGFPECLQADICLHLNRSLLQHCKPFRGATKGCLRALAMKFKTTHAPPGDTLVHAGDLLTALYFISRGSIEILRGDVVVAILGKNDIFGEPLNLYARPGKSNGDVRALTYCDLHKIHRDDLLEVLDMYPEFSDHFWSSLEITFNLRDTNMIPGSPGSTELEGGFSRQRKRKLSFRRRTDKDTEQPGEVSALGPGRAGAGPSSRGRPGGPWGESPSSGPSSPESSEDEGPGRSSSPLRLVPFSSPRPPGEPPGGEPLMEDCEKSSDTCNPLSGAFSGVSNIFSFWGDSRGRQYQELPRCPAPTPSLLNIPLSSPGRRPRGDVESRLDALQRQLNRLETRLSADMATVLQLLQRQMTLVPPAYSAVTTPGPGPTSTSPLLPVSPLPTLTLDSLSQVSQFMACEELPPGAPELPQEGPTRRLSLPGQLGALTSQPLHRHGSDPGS
Chain of CYP3A4 (P08684 whole entry): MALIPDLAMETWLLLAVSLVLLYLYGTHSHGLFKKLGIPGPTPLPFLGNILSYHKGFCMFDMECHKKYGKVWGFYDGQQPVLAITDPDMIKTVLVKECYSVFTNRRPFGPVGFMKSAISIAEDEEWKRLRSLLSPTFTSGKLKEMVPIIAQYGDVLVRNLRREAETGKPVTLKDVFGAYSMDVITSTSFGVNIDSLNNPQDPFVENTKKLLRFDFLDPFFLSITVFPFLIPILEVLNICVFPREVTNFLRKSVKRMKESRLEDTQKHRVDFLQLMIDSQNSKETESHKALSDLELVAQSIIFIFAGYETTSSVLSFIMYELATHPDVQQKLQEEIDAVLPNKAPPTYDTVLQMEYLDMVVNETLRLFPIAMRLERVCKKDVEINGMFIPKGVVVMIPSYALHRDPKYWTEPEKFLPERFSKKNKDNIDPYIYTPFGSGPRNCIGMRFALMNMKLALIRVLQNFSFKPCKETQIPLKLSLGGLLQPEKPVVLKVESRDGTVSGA
Chain of CYP2A6 (P11509 whole entry): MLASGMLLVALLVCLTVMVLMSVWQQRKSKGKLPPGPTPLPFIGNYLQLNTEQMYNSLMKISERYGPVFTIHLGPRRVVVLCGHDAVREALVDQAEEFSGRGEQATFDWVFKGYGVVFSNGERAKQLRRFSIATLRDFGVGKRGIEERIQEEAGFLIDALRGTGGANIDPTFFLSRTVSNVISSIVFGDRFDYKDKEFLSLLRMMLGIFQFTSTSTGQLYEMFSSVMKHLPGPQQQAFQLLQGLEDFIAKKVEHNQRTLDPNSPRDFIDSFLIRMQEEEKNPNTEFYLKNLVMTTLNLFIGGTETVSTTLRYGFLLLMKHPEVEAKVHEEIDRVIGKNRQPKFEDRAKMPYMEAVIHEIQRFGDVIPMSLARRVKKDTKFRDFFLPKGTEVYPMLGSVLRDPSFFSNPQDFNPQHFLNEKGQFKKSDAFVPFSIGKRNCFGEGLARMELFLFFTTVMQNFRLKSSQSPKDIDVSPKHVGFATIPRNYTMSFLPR
Chain of CYP2C19 (P33261 whole entry): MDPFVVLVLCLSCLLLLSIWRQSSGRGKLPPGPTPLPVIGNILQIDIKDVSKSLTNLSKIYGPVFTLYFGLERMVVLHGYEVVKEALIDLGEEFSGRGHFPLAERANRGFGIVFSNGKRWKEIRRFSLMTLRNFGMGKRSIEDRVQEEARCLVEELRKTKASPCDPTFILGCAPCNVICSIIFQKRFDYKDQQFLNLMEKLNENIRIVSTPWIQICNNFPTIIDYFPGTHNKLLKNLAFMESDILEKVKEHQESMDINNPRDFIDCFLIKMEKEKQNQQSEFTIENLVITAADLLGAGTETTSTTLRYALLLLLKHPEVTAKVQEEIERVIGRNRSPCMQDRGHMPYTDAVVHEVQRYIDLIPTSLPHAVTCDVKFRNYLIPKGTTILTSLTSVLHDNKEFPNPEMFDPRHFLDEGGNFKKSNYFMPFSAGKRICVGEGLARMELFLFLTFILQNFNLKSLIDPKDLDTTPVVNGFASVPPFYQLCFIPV
Chain of CYP2D6 (P10635 whole entry): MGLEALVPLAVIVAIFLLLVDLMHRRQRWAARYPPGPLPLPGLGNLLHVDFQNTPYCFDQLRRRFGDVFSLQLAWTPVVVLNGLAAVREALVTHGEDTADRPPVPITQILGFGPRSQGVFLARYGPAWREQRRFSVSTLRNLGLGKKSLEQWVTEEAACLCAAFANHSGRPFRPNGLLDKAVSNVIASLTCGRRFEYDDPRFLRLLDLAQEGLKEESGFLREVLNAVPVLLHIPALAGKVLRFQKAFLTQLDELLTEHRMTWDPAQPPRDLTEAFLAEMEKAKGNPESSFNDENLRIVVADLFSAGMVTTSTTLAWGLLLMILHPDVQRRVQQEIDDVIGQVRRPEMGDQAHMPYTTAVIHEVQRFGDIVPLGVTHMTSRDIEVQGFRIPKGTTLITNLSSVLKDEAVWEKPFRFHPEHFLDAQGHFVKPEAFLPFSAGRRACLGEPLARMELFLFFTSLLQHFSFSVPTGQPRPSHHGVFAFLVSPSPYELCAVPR
Chain of Aurora-A (O14965 whole entry): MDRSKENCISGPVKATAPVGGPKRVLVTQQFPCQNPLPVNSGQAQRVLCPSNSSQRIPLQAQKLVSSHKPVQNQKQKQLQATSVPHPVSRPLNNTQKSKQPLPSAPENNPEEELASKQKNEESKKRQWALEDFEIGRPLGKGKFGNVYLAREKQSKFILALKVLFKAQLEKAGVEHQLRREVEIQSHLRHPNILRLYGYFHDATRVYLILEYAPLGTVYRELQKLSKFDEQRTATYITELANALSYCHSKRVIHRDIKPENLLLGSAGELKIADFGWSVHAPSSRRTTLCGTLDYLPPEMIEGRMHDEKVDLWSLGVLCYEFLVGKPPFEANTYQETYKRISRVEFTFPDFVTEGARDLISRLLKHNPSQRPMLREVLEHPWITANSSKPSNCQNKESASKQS
Chain of CYP2C9 (P11712 whole entry): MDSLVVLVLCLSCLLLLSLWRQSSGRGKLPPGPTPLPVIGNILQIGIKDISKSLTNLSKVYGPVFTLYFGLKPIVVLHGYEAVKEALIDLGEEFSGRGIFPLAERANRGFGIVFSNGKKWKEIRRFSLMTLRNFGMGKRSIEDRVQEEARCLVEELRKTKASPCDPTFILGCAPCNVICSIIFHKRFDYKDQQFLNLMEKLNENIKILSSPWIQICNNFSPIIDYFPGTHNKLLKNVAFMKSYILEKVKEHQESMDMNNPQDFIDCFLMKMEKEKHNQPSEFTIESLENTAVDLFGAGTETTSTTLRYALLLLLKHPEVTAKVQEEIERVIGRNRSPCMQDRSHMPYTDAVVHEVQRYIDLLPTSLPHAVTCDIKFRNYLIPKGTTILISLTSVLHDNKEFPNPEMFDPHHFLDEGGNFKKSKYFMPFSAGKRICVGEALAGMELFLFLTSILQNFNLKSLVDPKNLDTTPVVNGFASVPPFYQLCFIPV
Chain of Aurora-B (Q96GD4 whole entry): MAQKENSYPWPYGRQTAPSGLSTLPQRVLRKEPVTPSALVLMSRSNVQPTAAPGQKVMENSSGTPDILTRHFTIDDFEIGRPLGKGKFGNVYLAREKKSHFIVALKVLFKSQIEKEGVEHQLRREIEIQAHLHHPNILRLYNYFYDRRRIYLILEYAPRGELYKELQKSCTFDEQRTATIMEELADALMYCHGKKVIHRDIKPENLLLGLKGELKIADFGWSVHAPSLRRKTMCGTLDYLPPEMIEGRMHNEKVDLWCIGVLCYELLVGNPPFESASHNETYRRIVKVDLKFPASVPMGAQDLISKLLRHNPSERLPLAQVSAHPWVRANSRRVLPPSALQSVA
Chain of CYP1A2 (P05177 whole entry): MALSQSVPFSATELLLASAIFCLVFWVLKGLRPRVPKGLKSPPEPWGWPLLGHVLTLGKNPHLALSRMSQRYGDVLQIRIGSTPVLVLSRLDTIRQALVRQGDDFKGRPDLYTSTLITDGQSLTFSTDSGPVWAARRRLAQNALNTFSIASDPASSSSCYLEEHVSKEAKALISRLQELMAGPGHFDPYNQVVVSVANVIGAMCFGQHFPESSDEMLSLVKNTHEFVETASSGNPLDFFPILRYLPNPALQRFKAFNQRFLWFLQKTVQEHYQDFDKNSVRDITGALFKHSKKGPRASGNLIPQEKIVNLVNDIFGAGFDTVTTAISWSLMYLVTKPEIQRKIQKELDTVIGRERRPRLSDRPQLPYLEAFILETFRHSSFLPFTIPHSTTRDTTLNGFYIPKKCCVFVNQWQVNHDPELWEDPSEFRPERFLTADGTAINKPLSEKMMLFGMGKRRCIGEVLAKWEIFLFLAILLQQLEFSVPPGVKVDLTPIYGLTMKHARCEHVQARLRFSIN

In the case of `Cc1cc(CN2CCN(c3c(Br)cnc4nc(-c5ccc(N6CCN(C)CC6)cc5)[nH]c34)CC2)no1` [CCT137690, reference compound], the “HLM: Percentage of parent compound metabolised” value (“HLM: Percentage” for short) [1] is listed as 86% and the “growth of a SW620 human colon carcinoma xenograft in vivo” value [2] is listed as “inhibits the growth”.

`Cn1cc(-c2nc3c(N4CCN(Cc5cccnc5)CC4)c(Br)cnc3[nH]2)cn1` [Comparator 1, 6-bromo-2-(1-methyl-1H-pyrazol-4-yl)-7-(4-(pyridine-3-ylmethyl)piperazin-1-yl)-3H-imidazo[4,5-b]pyridine] showed an IC50 (CYP2C9) of 10 to 50 µM, an IC50 (CYP2C19) of 10 to 50 µM and an IC50 (hERG [3]) of 5.5 µM. For the same molecule, the IC50 (CYP3A4) was under 1 µM, the IC50 (Aurora-A) was 0.032 µM and the IC50 (CYP1A2) was 10 to 50 µM. The IC50 (CYP2D6) was 1 to 10 µM and the IC50 (CYP2A6) was over 50 µM.

`Cc1nn(C)c(C)c1-c1nc2c(N3CCN(Cc4cccnc4)CC3)c(Br)cnc2[nH]1` [Comparator 2, 6-bromo-7-(4-(pyridine-3-ylmethyl)piperazin-1-yl)-2-(1,3,5-trimethyl-1H-pyrazol-4-yl)-3H-imidazo[4,5-b]pyridine] gave an IC50 (CYP2C9) of 10 to 50 µM, an IC50 (CYP2C19) of 10 to 50 µM and an IC50 (hERG [3]) of 10.8 µM. It also gave an IC50 (CYP3A4) of under 1 µM, an IC50 (Aurora-A) of 0.3 µM and an IC50 (CYP2D6) of 10 to 50 µM. For the same molecule, the IC50 (CYP2A6) was over 50 µM.

In the case of `Cc1nn(C)cc1-c1nc2c(N3CCN(Cc4ccc(Cl)cc4)CC3)c(Cl)cnc2[nH]1` [Example 1, 6-Chloro-7-(4-(4-chlorobenzyl)piperazin-1-yl)-2-(1,3-dimethyl-1H-pyrazol-4-yl)-3H-imidazo[4,5-b]pyridine], the “day single mice were culled (mean tumour volume increased by over 500%)” value ([4]; 50 mg/kg) is reported as 28 days and 31 days, the “tumour volume, % of the initial volume after 11 days” value ([4]; 50 mg/kg dosing schedule) is reported as 42% and the “day single mice were culled (mean tumour volume increased by over 500%)” value ([4]; 100 mg/kg) is reported as 46 days and 56 days. For the same molecule, the “tumours when therapy was discontinued after 11 days” value ([4]; 100 mg/kg dosing schedule) was “undetectable”, the “toxicity as defined by body weight loss” value ([4]; athymic mice, oral 50 and 100 mg/kg) was “no observed toxicity” and the “growth of MV4-11 human tumour xenografts” value ([4]; athymic mice, oral 50 and 100 mg/kg, dose dependent) was “strongly inhibited the growth”. The “mice that failed to develop progressively growing tumours” value ([4]; each treatment group (50 and 100 mg/kg), study terminated on day 60) was 60%, the remaining binding at 1 µM (Aurora-B) was 1% and the “competition for FLT3(D835H)” value (FLT3(D835H)) was “greater than 94%”. For the same molecule, the “competition for FLT3 kinase” value (FLT3) was “greater than 94%”, the “competition for FLT3-ITD” value (FLT3-ITD) was “greater than 94%” and the Vd (In vivo full PK in mouse; female, Balb/C, plasma, 5 mg/kg) was 0.066 L and ~3.3 L/kg. For the same molecule, the clearance (In vivo full PK in mouse; female, Balb/C, plasma, iv, 5 mg/kg) was 0.967 mL/min, the “AUCinf, (iv)” value (In vivo full PK in mouse; iv 5 mg/kg) was 3.753 µM·h and the “Cl, (iv)” value (In vivo full PK in mouse; iv 5 mg/kg) was 0.058 L/h. For the same molecule, the “t½, (iv)” value (In vivo full PK in mouse; iv 5 mg/kg) was 50.4 min, the “F % (po)” value (In vivo full PK in mouse; oral 5 mg/kg) was 100% and the IC50 (hERG [3]) was over 25 µM. For the same molecule, the IC50 (CYP3A4) was over 50 µM, the “competition for FLT3(D835Y)” value (FLT3(D835Y)) was “greater than 94%” and the “histone H-3 phosphorylation” value [5] was “clear inhibition”. For the same molecule, the STAT5 phosphorylation [6] was “inhibition of STAT5 phosphorylation”, the LogD7.4 (Log D measurement) was “^cLogD7.4 = 3.84 (experimentally determined value)” and the “HLM: Percentage” value [1] was 10%. The GI50 [7] was 0.3 µM, the IC50 (CYP2A6) was over 50 µM and the “hits from the 386 non-mutant kinases tested” value [8] was 22. For the same molecule, the “MLM: Percentage of parent compound metabolised” value (from here on “MLM: Percentage”) [9] was 34%.

In the case of `Cc1nn(C)cc1-c1nc2c(N3CCN(Cc4ncon4)CC3)c(Cl)cnc2[nH]1` [Example 2, 3-((4-(6-Chloro-2-(1,3-dimethyl-1H-pyrazol-4-yl)-3H-imidazo[4,5-b]pyridin-7-yl)piperazin-1-yl)methyl)-1,2,4-oxadiazole], the IC50 (CYP3A4) is reported as over 50 µM, the “HLM: Percentage” value [1] is reported as 22% and the “MLM: Percentage” value [9] is reported as 67%.

In the case of `Cc1nc(CN2CCN(c3c(Cl)cnc4[nH]c(-c5cn(C)nc5C)nc34)CC2)no1` [Example 3, 3-((4-(6-Chloro-2-(1,3-dimethyl-1H-pyrazol-4-yl)-3H-imidazo[4,5-b]pyridin-7-yl)piperazin-1-yl)methyl)-5-methyl-1,2,4-oxadiazole], the IC50 (CYP2C19) is reported as over 50 µM, the IC50 (CYP3A4) is reported as over 50 µM and the “HLM: Percentage” value [1] is reported as 20%. The IC50 (hERG [10]) was 9.5 µM, the IC50 (CYP2A6) was over 50 µM and the “MLM: Percentage” value [9] was 58%.

— patent US9447092B2, “Pharmaceutically active compounds” (CANCER RESEARCH TECHNOLOGY LIMITED, priority 2012, dated 2016)
